Results reported in PubChem BioAssay AID328 (DTP/NCI, 2004).
Where “and” joins values, the source holds several entries; their conditions need not be identical. Equal entries are not always repeated. Inconclusive results and toxic doses are left out.

System: BDF1 mice, P388 leukemia ip, median survival T/C
Test: NCI In Vivo Anticancer Drug Screen. Data for tumor model P388 Leukemia (intraperitoneal) in B6D2F1 (BDF1) mice
Details: endpoint: median survival time, higher = longer survival
Method in brief: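 Read-out is survival of treated animals expressed relative to the vehicle group, as a T/C ratio.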

[1] = dose: 6.25 mg/kg/injection, schedule: Q01DX009 (ip), vehicle: saline with Tween-80
[2] = dose: 12.5 mg/kg/injection, schedule: Q01DX009 (ip), vehicle: saline with Tween-80
[3] = dose: 25.0 mg/kg/injection, schedule: Q01DX009 (ip), vehicle: saline with Tween-80
[4] = dose: 100.0 mg/kg/injection, schedule: Q04DX003 (ip), vehicle: saline with Tween-80
[5] = dose: 50.0 mg/kg/injection, schedule: Q01DX009 (ip), vehicle: saline with Tween-80
[6] = dose: 100.0 mg/kg/injection, schedule: Q01DX009 (ip), vehicle: saline with Tween-80
[7] = dose: 200.0 mg/kg/injection, schedule: Q01DX009 (ip), vehicle: saline with Tween-80
[8] = dose: 400.0 mg/kg/injection, schedule: Q01DX009 (ip), vehicle: saline with Tween-80
[9] = dose: 50.0 mg/kg/injection, schedule: Q01DX009 (ip), vehicle: Klucel (hydroxypropylcellulose) (HPC)
[10] = dose: 100.0 mg/kg/injection, schedule: Q01DX009 (ip), vehicle: Klucel (hydroxypropylcellulose) (HPC)
[11] = dose: 100.0 mg/kg/injection, schedule: Q04DX003 (ip), vehicle: Klucel (hydroxypropylcellulose) (HPC)
[12] = dose: 200.0 mg/kg/injection, schedule: Q04DX003 (ip), vehicle: Klucel (hydroxypropylcellulose) (HPC)

C/C=C/C(OCC)OCC
T/C (dose: 6.25 mg/kg/injection, schedule: Q04DX003 (ip), vehicle: water): 95 % of control | T/C (dose: 12.5 mg/kg/injection, schedule: Q01DX009 (ip), vehicle: water): 105 % of control | T/C (dose: 12.5 mg/kg/injection, schedule: Q04DX003 (ip), vehicle: water): 91 % of control | T/C (dose: 25.0 mg/kg/injection, schedule: Q01DX009 (ip), vehicle: water): 91 % of control | T/C (dose: 25.0 mg/kg/injection, schedule: Q04DX003 (ip), vehicle: water): 92 % of control | T/C (dose: 50.0 mg/kg/injection, schedule: Q01DX009 (ip), vehicle: water): 100 % of control | T/C (dose: 50.0 mg/kg/injection, schedule: Q04DX003 (ip), vehicle: water): 105 % of control | T/C (dose: 100.0 mg/kg/injection, schedule: Q01DX009 (ip), vehicle: water): 98 % of control | T/C (dose: 100.0 mg/kg/injection, schedule: Q04DX003 (ip), vehicle: water): 113 % of control | T/C (dose: 200.0 mg/kg/injection, schedule: Q01DX009 (ip), vehicle: water): 109 % of control | T/C (dose: 200.0 mg/kg/injection, schedule: Q04DX003 (ip), vehicle: water): 111 % of control and 113 % of control | T/C (dose: 300.0 mg/kg/injection, schedule: Q04DX003 (ip), vehicle: water): 111 % of control

N#CCC(C#N)N1CCOCC1 (stereo not given)
T/C [1]: 111 % of control | T/C [2]: 96 % of control | T/C [3]: 88 % of control | T/C (dose: 50.0 mg/kg/injection, schedule: Q04DX003 (ip), vehicle: saline with Tween-80): 104 % of control | T/C [4]: 108 % of control

O=C(/C=C/c1ccc(OCc2ccccc2)cc1)c1ccc(F)cc1
T/C [5]: 89 % of control | T/C [6]: 98 % of control | T/C [7]: 89 % of control

Cc1c(N)cccc1N
T/C [2]: 96 % of control | T/C [3]: 123 % of control

C/C(CC1(O)C(=O)Nc2ccccc21)=N\O (stereo not given)
T/C [6]: 100 % of control | T/C [7]: 95 % of control | T/C [8]: 104 % of control

CN(C)C1C(=O)C(C(N)=O)=C(O)C2(O)C(=O)C3=C(O)c4c(O)cccc4C(C)(O)C3C(O)C12 (stereo not given)
T/C (dose: 50.0 mg/kg/injection, schedule: Q01DX010 (oral), vehicle: water): 100 % of control | T/C (dose: 100.0 mg/kg/injection, schedule: Q01DX010 (oral), vehicle: water): 109 % of control | T/C (dose: 200.0 mg/kg/injection, schedule: Q01DX010 (oral), vehicle: water): 100 % of control

COc1cc([N+](=O)[O-])c(Cl)cc1NS(=O)(=O)c1ccccc1
T/C (dose: 67.0 mg/kg/injection, schedule: Q01DX009 (ip), vehicle: saline with Tween-80): 100 % of control and 108 % of control | T/C [6]: 100 % of control and 111 % of control | T/C [4]: 103 % of control | T/C (dose: 150.0 mg/kg/injection, schedule: Q01DX009 (ip), vehicle: saline with Tween-80): 100 % of control and 111 % of control | T/C [7]: 120 % of control | T/C (dose: 200.0 mg/kg/injection, schedule: Q04DX003 (ip), vehicle: saline with Tween-80): 92 % of control | T/C [8]: 105 % of control | T/C (dose: 400.0 mg/kg/injection, schedule: Q04DX003 (ip), vehicle: saline with Tween-80): 96 % of control

CCCCCCC(=O)/C=C/c1cccc(Cl)c1
T/C (dose: 100.0 mg/kg/injection, schedule: Q04DX003 (ip), vehicle: saline): 88 % of control | T/C (dose: 400.0 mg/kg/injection, schedule: Q04DX003 (ip), vehicle: saline): 100 % of control

C=CCOCCN1CCN(CCCN2c3ccccc3Sc3ccc(C(F)(F)F)cc32)CC1
T/C (dose: 5.0 mg/kg/injection, schedule: Q04DX003 (ip), vehicle: saline): 104 % of control | T/C (dose: 10.0 mg/kg/injection, schedule: Q04DX003 (ip), vehicle: saline): 121 % of control

C1CC[N-]CC1.C1CC[N-]CC1.C1CC[N-]CC1.[Cl][Cr]([Cl])[Cl]
T/C [9]: 90 % of control | T/C [10]: 100 % of control

C=C(C)C12OC3(c4ccccc4)OC1C1C4OC4(CO)C(O)C4(O)C(=O)C(C)=CC4C1(O3)C(C)C2O (stereo not given)
T/C (dose: 25.0 micrograms/kg/injection, schedule: Q01DX009 (ip), vehicle: saline + alcohol): 95 % of control and 102 % of control | T/C (dose: 50.0 micrograms/kg/injection, schedule: Q01DX009 (ip), vehicle: saline + alcohol): 93 % of control | T/C (dose: 100.0 micrograms/kg/injection, schedule: Q01DX009 (ip), vehicle: saline + alcohol): 107 % of control | T/C (dose: 200.0 micrograms/kg/injection, schedule: Q01DX009 (ip), vehicle: saline + alcohol): 103 % of control and 110 % of control | T/C (dose: 800.0 micrograms/kg/injection, schedule: Q01DX009 (ip), vehicle: saline + alcohol): 116 % of control | T/C (dose: 1600.0 micrograms/kg/injection, schedule: Q01DX009 (ip), vehicle: saline + alcohol): 106 % of control

COc1ccc(-c2cc(=O)c3c(O)c(OC)c(O)cc3o2)cc1
T/C (dose: 10.0 mg/kg/injection, schedule: Q01DX010 (ip), vehicle: carboxymethylcellulose (CMC)): 95 % of control | T/C (dose: 20.0 mg/kg/injection, schedule: Q01DX010 (ip), vehicle: carboxymethylcellulose (CMC)): 90 % of control | T/C (dose: 80.0 mg/kg/injection, schedule: Q01DX010 (ip), vehicle: carboxymethylcellulose (CMC)): 95 % of control

O=C(O)C(O)C(O)C1[O][Sb][O]C1CO (stereo not given)
T/C (dose: 22.0 mg/kg/injection, schedule: Q04DX003 (ip), vehicle: saline): 110 % of control | T/C (dose: 50.0 mg/kg/injection, schedule: Q01DX009 (ip), vehicle: saline): 150 % of control | T/C (dose: 75.0 mg/kg/injection, schedule: Q01DX009 (ip), vehicle: saline): 155 % of control | T/C (dose: 100.0 mg/kg/injection, schedule: Q01DX009 (ip), vehicle: saline): 166 % of control | T/C (dose: 150.0 mg/kg/injection, schedule: Q01DX009 (ip), vehicle: saline): 155 % of control | T/C (dose: 150.0 mg/kg/injection, schedule: Q04DX003 (ip), vehicle: saline): 177 % of control | T/C (dose: 225.0 mg/kg/injection, schedule: Q01DX009 (ip), vehicle: saline): 150 % of control and 183 % of control

CN1/C(=C/C=C(/N=C(C#N)C#N)c2ccccc2)C(C)(C)c2ccccc21
T/C [5]: 95 % of control | T/C [6]: 98 % of control | T/C [7]: 98 % of control

N=C(N)SCc1ccc(CSC(=N)N)s1
T/C (dose: 6.25 mg/kg/injection, schedule: Q01DX009 (ip), vehicle: saline): 97 % of control | T/C (dose: 12.5 mg/kg/injection, schedule: Q01DX009 (ip), vehicle: saline): 106 % of control | T/C (dose: 25.0 mg/kg/injection, schedule: Q01DX009 (ip), vehicle: saline): 106 % of control

COC(OC)c1cc(=O)[nH]c(=S)n1Cl
T/C [11]: 100 % of control | T/C [12]: 104 % of control | T/C (dose: 400.0 mg/kg/injection, schedule: Q04DX003 (ip), vehicle: Klucel (hydroxypropylcellulose) (HPC)): 100 % of control

COc1cccc2c1C(=O)c1c(O)c3c(c(O)c1C2=O)C[C@@](O)(C(=O)COC(=O)Cc1ccccc1)C[C@@H]3OC1CC(N)C(O)C(C)O1 (stereo not given in full)
T/C (dose: 1.3 mg/kg/injection, schedule: Q01DX009 (ip), vehicle: saline): 162 % of control | T/C (dose: 2.0 mg/kg/injection, schedule: Q01DX009 (ip), vehicle: saline): 200 % of control

CC(C)C(=O)[O][Sn]([c]1ccccc1)([c]1ccccc1)[c]1ccccc1
T/C [2]: 123 % of control

CCCCCCCCC(=O)N1CC1
T/C [9]: 95 % of control | T/C [10]: 118 % of control | T/C [11]: 109 % of control | T/C (dose: 200.0 mg/kg/injection, schedule: Q01DX009 (ip), vehicle: Klucel (hydroxypropylcellulose) (HPC)): 86 % of control | T/C [12]: 113 % of control

O[O][Ge]([c]1ccccc1)([c]1ccccc1)[c]1ccccc1
T/C (dose: 100.0 mg/kg/injection, schedule: Q01DX001 (ip), vehicle: Klucel (hydroxypropylcellulose) (HPC)): 100 % of control | T/C (dose: 200.0 mg/kg/injection, schedule: Q01DX001 (ip), vehicle: Klucel (hydroxypropylcellulose) (HPC)): 100 % of control | T/C (dose: 400.0 mg/kg/injection, schedule: Q01DX001 (ip), vehicle: Klucel (hydroxypropylcellulose) (HPC)): 100 % of control

CC1(C)CC(=O)OC(=O)C1
T/C (dose: 3.13 mg/kg/injection, schedule: Q01DX009 (ip), vehicle: saline with Tween-80): 93 % of control | T/C [1]: 100 % of control | T/C [2]: 95 % of control | T/C [3]: 105 % of control

CCC(=O)O[C@H]1CC[C@H]2[C@@H]3C[C@H](C)C4=CC(=O)C=C[C@]4(C)[C@H]3C(=O)C[C@]12C
T/C [6]: 100 % of control | T/C [7]: 91 % of control | T/C [8]: 95 % of control
